Structures can show the parent of a compound that is named as a salt.
Molecular target: T1, P2X4 receptor (recombinant mouse P2X4 purinoceptor) (Mus musculus, UniProt Q9JJX6)
T1 construct: gene P2rx4; the complete extracellular domain, N-terminal His-6 tag, expressed in E. coli
T1 sequence (Q9JJX6 55-338): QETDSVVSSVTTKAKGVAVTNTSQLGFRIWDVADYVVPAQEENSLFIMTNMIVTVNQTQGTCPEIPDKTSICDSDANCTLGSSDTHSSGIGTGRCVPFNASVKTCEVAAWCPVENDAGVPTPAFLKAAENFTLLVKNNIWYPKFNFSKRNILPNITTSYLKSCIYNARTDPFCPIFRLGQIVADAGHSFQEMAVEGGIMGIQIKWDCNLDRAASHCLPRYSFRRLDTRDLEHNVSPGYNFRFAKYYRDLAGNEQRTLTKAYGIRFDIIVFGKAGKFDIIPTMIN
Test: SPR (Biacore T200, P2X4 immobilized on CM5 chip)
Type: binding

C=C(C)CCC[C@]1(C)OC(=O)[C@]23CCC4C(=CC[C@H]5C(C)(C)[C@@H](O[C@@H]6OC[C@@H](OS(=O)(=O)O)[C@H](O)[C@H]6O[C@@H]6O[C@H](C)[C@@H](O[C@@H]7O[C@H](CO)[C@@H](O)[C@H](O[C@@H]8O[C@H](CO)[C@@H](O)[C@H](OC)[C@H]8O)[C@H]7O)[C@H](O)[C@H]6O[C@@H]6OC[C@@H](O)[C@H](O)[C@H]6O)CC[C@]45C)[C@]2(C)CC(=O)[C@@H]31 (stereo partly drawn) [CA2-2, 3-O-{3-O-methyl-β-D-glucopyranosyl-(1→3)-β-D-glucopyranosyl-(1→4)-[β-D-xylopyranosyl-(1→2)]-β-D-quinovopyranosyl-(1→2)−4-O-sodium sulfate-β-D-xylopyranosyl}−16-keto-holosta-7,25-diene]
Kd: 45.2 µM
